The results in this text go back to BindingDB's records for patent US20240083900 (Biogen Ma, 2024).

The target in the experiment is Tyrosine-protein kinase BTK (Homo sapiens, UniProt Q06187). Description: In Vitro BTK Kinase Assay: Btk-PolyGAT-LS Assay. The method, then: The purpose of the BTK in vitro assay is to determine compound potency against BTK through the measurement of IC50. […] For a typical assay, a 24 μL aliquot of a ATP/peptide master mix (final concentration; ATP 10 μM, polyGAT 100 nM) in kinase buffer (10 mM Tris-HCl pH 7.5, 10 mM MgCl2, 200 μM Na3PO4, 5 mM DTT, 0.01% Triton X-100, and 0.2 mg/ml casein) is added to each well. […] The assay is incubated for 30 minutes before being stopped with 28 μL of a 50 mM EDTA solution. […] The plate is covered and incubated for 45 minutes at room temperature.
Tyrosine-protein kinase BTK, sequence (Q06187 whole entry): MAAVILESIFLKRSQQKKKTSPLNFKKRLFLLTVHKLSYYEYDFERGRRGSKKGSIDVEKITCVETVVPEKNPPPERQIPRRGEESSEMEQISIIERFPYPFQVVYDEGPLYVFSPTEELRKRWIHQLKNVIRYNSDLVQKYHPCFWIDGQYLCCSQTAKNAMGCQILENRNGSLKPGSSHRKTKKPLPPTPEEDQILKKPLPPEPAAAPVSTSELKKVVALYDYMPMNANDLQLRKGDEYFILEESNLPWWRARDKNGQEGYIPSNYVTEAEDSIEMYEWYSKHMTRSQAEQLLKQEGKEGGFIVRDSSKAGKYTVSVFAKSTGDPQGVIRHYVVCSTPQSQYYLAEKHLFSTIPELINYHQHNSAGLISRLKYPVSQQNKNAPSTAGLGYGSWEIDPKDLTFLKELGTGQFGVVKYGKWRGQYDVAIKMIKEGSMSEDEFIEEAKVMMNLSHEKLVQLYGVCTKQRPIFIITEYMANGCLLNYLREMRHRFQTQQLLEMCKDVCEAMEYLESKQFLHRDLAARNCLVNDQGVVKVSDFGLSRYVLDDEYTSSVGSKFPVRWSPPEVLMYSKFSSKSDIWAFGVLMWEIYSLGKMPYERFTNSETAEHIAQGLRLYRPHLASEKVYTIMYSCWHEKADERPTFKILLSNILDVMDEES

By IC50 is commonly meant the midpoint of a concentration-inhibition curve. For `Cn1cc(-c2cn3nccc3c(OC3CCN(C(=O)/C=C\CCl)CC3)n2)cn1` [US20240083900, Example 8], the IC50 is under 1 nM.
